{
  "source": "patent US7351837B1",
  "about": "“Thermally cleavable surfactants without deprotonation” (Sandia Corporation, priority 2004, dated 2008)",
  "format_in_all_cases": "physicochemical",
  "key": {"[1]": {"test": "critical micelle concentration by dynamic surface tension (maximum bubble pressure method)", "conditions": "aqueous solution", "procedure": "The dynamic surface tension measurements were conducted using a SENSADYNE® QC3000 dynamic surface tensiometer (available from the SENSADYNE® Instruments Division of the Chem-Dyne Research Corporation, Mesa, Ariz.) that utilizes the maximum bubble pressure method. The fundamental operating principles and theoretical considerations of this method are explained in detail elsewhere, and a brief summary only is given here. Two glass probes with different orifice diameters (0.5 and 4.0 mm) were submerged in an aqueous surfactant solution and nitrogen was bubbled through the samples. Dry nitrogen was used as the bubble source gas and was delivered to the instrument at 50 psi. The instrument was operated at a bubble frequency of 0.5 Hz to approximate equilibrium surface tension values for each sample. The differential pressure signal generated by bubble formation is related to the interfacial surface tension of the liquid and gas. Surface tension calibration was carried out by measuring the surface tension of deionized water and ethanol and comparing to known literature values. Solution temperature was monitored with a calibrated thermistor (± 0.1° C.) attached to the orifice probes. Instrumental calibration was conducted for every change in experimental conditions and after prolonged periods of instrumental quiescence. All experiments were conducted at 25.0±0.2° C. unless otherwise noted. […]"}, "[2]": {"test": "retro-DA degradation via surface tension", "conditions": "10 mM aqueous solution", "procedure": "The surfactants of the invention undergo the retro-DA reaction after exposure to elevated temperatures. […] Data were recorded for all experiments via a computer interface using the […]3000 version 5.3 software. […] Additional measurements to determine the effect of temperature on the rates of surfactant dissociation and loss of surface active properties were conducted on 10 mM solutions of surfactant 3. The data shown in FIG. 3 clearly indicate that the temperature at which the samples are elevated to has a dramatic impact on the rate at which the surface active properties are lost in these solutions. […] At the lowest temperature monitored, 55° C., it takes over 30 hours of exposure to eliminate surface activity. The data has been fit with a logistic 4-parameter algorithm using SIGMAPLOT® (available from Systat Software, Inc., Richmond, Calif.). […] The effective control of the surface active properties of the system is envisioned to be accomplished by manipulating one or any combination of these parameters. It should also be noted that all of the surface tension measurements of the cleaved samples were taken after the samples had cooled to ambient conditions, and are convincing evidence that the dissociation accompanying the retro DA is irreversible in micelles."}, "[3]": {"test": "retro-DA degradation via 1H NMR", "conditions": "65° C., 10 mM aqueous sample, isothermal", "text": "Percent degradation was tracked by recording the decrease in the integral value for the bridge head proton of the DA adduct located at 5.02 ppm. […] It is important to note that the percent degradation of surfactant 5 over various temperatures is not necessarily linear. This is a result of the Keq for the reversible DA reaction with DA adduct formation/stability dominating at lower temperatures."}},
  "data": [
    {"smiles": "CCCCCCCCCCCCC12C=CC(O1)C1C(=O)N(c3ccc(S(=O)(=O)[O-])cc3)C(=O)C12.[Na+]", "note": "(stereo not drawn) [surfactant 3, exo-4-Dodecyl-7-oxabicyclo[2.2.1]hept-5-ene-2,3-dicarboxy-N-(4-sodiumsulfophenyl)imide]", "values": [
      {"measurement": "cmc by dynamic surface tension measurements", "setting": "[1]; 25.0±0.2° C., bubble frequency 0.5 Hz", "value": 5.1, "unit": "mM"},
      {"measurement": "second inflection point of surface tension vs concentration (micelles begin to form)", "setting": "[1]; FIG. 2", "value": "~5", "unit": "mM"},
      {"measurement": "time of exposure to eliminate surface activity", "setting": "[2]; 55° C.", "value": "over 30 hours"},
      {"measurement": "time of exposure to loss of all surface activity (surface tension is that of water)", "setting": "[2]; 95° C.", "value": "≤ 1", "unit": "h"},
      {"measurement": "time of heating to complete degradation (1H NMR)", "setting": "[3]", "value": "about 10 hours"}
    ]}
  ]
}
